Assay results published in patent US20100022572A1, “NOVEL SPIRO COMPOUND AND MEDICINE COMPRISING THE SAME” (KOWA COMPANY, LTD., priority 2008, published 2010).

Key:
human 11β-HSD1 = biological target: T1, human 11β-HSD1 (Homo sapiens, UniProt P28845); test: Assay of enzyme inhibitory activity, human 11β-HSD1 (lysate of stably expressing HEK293 cells, cortisol ELISA); type: biochemical; conditions: Table 1; human 11β-HSD1, cell lysate, 100 nmol/L substrate, 37° C. 1 hour
T1 construct: The obtained PCR products of about 0.9 kbp, 1.2 kbp, and 0.9 kbp were subcloned into an expression vector pcDNA3.1+/Zeo; made in house
Experimental: (§1) Human 11β-HSD1-, human 11β-HSD2- and mouse 11β-HSD1-inhibitory effect • 1. Human 11β-HSD1-, Human 11β-HSD2- and Mouse 11β-HSD1-Gene Clonings and Establishment of Stably Expressing Cells
(§2) Human 11β-HSD1-, human 11β-HSD2-, and mouse 11β-HSD1-gene clonings were conducted using as a template a reverse transcription product of human-liver RNA, human-kidney RNA (CELL APPLICATIONS), and mouse-kidney RNA respectively, by means of PCR cloning with reference to nucleotide sequences of Genbank Accession Nos. NM_005525, NM_000196, and NM_008288. The obtained PCR products of about 0.9 kbp, 1.2 kbp, and 0.9 kbp were subcloned into an expression vector pcDNA3.1+/Zeo (Invitrogen).
(§3) Human 11β-HSD1- and human 11β-HSD2-expressing vectors were transfected into human kidney-derived cell line, HEK293 cells, using a transfection reagent, jet PEI (Funakoshi). Mouse 11β-HSD1 was transfected to Chinese hamster ovary-derived cell line, CHO-K1 cells. Selection was conducted with 200-400 μg/mL of zeocine (Invitrogen) to provide stably expressing-cell clones. The stably expressing cells were suspended in buffer solution A (20 mmol/L Tris-HCl, pH 7.4, 250 mmol/L sucrose, 1 mmol/L EGTA, 1 mmol/L EDTA, 1 mmol/L MgCl2), sonicated, and then stored at −80° C. • 2. Assay of Enzyme Inhibitory Activity
(§4) An enzymatic reaction was conducted using a polystyrene 96-well plate. Each well was added with 1 μL of a test agent dissolved in DMSO and then diluted (0.003 to 3 mmol/L), and further added with 10 μL of cell lysate diluted to a concentration of 0.1 mg/mL to 0.4 mg/mL. Next, 90 μL of buffer solution A containing substrate (100 nmol/L cortisone or cortisol) and coenzyme (400 μmol/L NADPH or NAD+) was added and the mixture was incubated at 37° C. for 1 hour. The enzymatic reaction was stopped by treating at 95° C. for 3 minutes. Cortisol that was present in the reaction solution was determined by a competitive ELISA shown below.
(§5) Anti-rabbit IgG antibody (Chemi-con) diluted to 2 μg/mL with carbonate buffer solution (pH 9.6) was added in 100 μL each to a 96-well immuno plate (Nunc) and immobilized by an incubation at 4° C. overnight. 50 μL of enzymatic reaction solution was put onto the plates, and further, anti-cortisol antibody (Cosmo Bio) and HRP-labeled cortisol (Cosmo Bio), diluted with buffer solution B (25 mmol/L Tris-HCl pH 7.4, 137 mmol/L NaCl, 2.68 mmol/L KCl), were added in 50 μL respectively and incubated at 4° C. overnight. After washed three times with buffer solution B containing 0.05% Tween 20, the plates were allowed to develop color by adding 100 μL of color reagent, TMB (Moss). The color reaction was stopped by 25 μL of 1 mol/L sulfuric acid and the absorbance was determined at 450 nm with a microplate reader (Molecular Device, VersaMax).
The values of human 11β-HSD1, human 11β-HSD2, and mouse 11β-HSD1 activities were subtracted from 100, and the resultant values were regarded as the respective 11β-HSD inhibition rates of example compounds. For each example compound, the value of 50% inhibitory concentration (IC50) was calculated from 11β-HSD inhibition rates at plural concentrations, for 11β-HSD1 and activities.

human 11β-HSD2 = biological target: T2, human 11β-HSD2 (Homo sapiens, UniProt P80365); test: Assay of enzyme inhibitory activity, human 11β-HSD2 (lysate of stably expressing HEK293 cells, cortisol ELISA); type: biochemical; conditions: Table 1; human 11β-HSD2, cell lysate, 100 nmol/L substrate, 37° C. 1 hour
T2 construct: The obtained PCR products of about 0.9 kbp, 1.2 kbp, and 0.9 kbp were subcloned into an expression vector pcDNA3.1+/Zeo; made in house
T2 sequence (P80365 1-405): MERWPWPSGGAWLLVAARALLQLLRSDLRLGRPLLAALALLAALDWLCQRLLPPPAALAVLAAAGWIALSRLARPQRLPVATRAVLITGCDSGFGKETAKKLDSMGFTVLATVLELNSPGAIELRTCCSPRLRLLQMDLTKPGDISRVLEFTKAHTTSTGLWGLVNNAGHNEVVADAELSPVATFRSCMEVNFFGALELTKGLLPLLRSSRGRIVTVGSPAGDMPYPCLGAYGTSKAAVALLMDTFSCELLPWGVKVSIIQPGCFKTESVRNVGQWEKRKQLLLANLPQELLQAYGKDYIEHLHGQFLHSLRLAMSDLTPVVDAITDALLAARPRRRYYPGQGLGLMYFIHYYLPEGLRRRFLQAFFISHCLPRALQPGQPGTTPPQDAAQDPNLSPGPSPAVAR
Experimental: as §1, §2, §3, §4
as §5, with “VersaMax). […]” for “VersaMax).”

T1 sequence (P28845 whole entry): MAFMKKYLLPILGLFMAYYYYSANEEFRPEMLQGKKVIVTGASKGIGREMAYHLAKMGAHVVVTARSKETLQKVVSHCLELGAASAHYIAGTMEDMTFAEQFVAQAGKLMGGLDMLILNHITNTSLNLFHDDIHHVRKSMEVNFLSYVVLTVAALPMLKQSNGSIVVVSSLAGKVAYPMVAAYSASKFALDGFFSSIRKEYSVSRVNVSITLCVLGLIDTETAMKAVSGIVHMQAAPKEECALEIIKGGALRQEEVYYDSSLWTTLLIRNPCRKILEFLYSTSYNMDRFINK

Structure (SMILES) | IC50 (human 11β-HSD1) | IC50 (human 11β-HSD2)
O=C(COc1ccccc1I)N1CCC2(C=Cc3ccccc32)CC1 [Example 4, 2-(2-iodophenoxy)-1-[spiro(indene-1,4′-piperidine)-1′-yl]ethanone] | 0.11 µM | > 30 µM
CC1=CC2(CCN(C(=O)COc3ccccc3C(F)(F)F)CC2)c2ccccc21 [Example 24, 1-[3-methylspiro(indene-1,4′-piperidine)-1′-yl]-2-[2-(trifluoromethyl)phenoxy]ethanone] | 0.066 µM | –
O=C(COc1ccccc1C(F)(F)F)N1CCC2(CC1)C(Cl)=Cc1ccccc12 [Example 22, 1-[2-chlorospiro(indene-1,4′-piperidine)-1′-yl]-2-[2-(trifluoromethyl)phenoxy]ethanone] | 0.03 µM | –
CC1Cc2ccccc2C12CCN(C(=O)COc1ccccc1C(F)(F)F)CC2 (centres unmarked) [Example 25, 1-[2-methyl-2,3-dihydrospiro(indene-1,4′-piperidine)-1′-yl]-2-[2-(trifluoromethyl)phenoxy]ethanone] | 0.12 µM | –
CC1=Cc2ccccc2C12CCN(C(=O)COc1ccccc1C(F)(F)F)CC2 [Example 16, 1-[2-methylspiro(indene-1,4′-piperidine)-1′-yl]-2-[2-(trifluoromethyl)phenoxy]ethanone] | 0.043 µM | –
O=C(COc1ccccc1C(F)(F)F)N1CCC2(CC1)C(=O)Cc1ccccc12 [Example 12, 1′-[2-[2-(trifluoromethyl)phenoxy]acetyl]spiro(indene-1,4′-piperidine)-2(3H)-one] | 0.077 µM | > 30 µM
O=C(COc1ccccc1C(F)(F)F)N1CCC2(CCc3ccccc32)CC1 [Example 10, 1-[2,3-dihydrospiro(indene-1,4′-piperidine)-1′-yl]-2-[2-(trifluoromethyl)phenoxy]ethanone] | 0.025 µM | –
O=C(COc1ccccc1C(F)(F)F)N1CCC2(CC1)c1ccccc1CC2O (centres unmarked) [Example 11, 1-[2-hydroxy-2,3-dihydrospiro(indene-1,4′-piperidine)-1′-yl]-2-[2-(trifluoromethyl)phenoxy]ethanone] | 0.23 µM | –
O=C1CC2(CCN(C(=O)COc3ccccc3C(F)(F)F)CC2)c2ccccc21 [Example 13] | 1 µM | –
CC(C)C1=Cc2ccccc2C12CCN(C(=O)COc1ccccc1C(F)(F)F)CC2 [Example 19, 1-[2-isopropylspiro(indene-1,4′-piperidine)-1′-yl]-2-[2-(trifluoromethyl)phenoxy]ethanone] | 0.34 µM | –
CCC1=Cc2ccccc2C12CCN(C(=O)COc1ccccc1C(F)(F)F)CC2 [Example 17, 1-[2-ethylspiro(indene-1,4′-piperidine)-1′-yl]-2-[2-(trifluoromethyl)phenoxy]ethanone] | 0.048 µM | –
CCc1ccccc1OCC(=O)N1CCC2(C=Cc3ccccc32)CC1 [Example 3, 2-(2-ethylphenoxy)-1-[spiro(indene-1,4′-piperidine)-1′-yl]ethanone] | 0.72 µM | > 30 µM
O=C(COc1ccccc1C(F)(F)F)N1CCC2(CC1)C(Br)=Cc1ccccc12 [Example 23, 1-[2-bromospiro(indene-1,4′-piperidine)-1′-yl]-2-[2-(trifluoromethyl)phenoxy]ethanone] | 0.049 µM | –
CCCC1=Cc2ccccc2C12CCN(C(=O)COc1ccccc1C(F)(F)F)CC2 [Example 18, 1-[2-propylspiro(indene-1,4′-piperidine)-1′-yl]-2-[2-(trifluoromethyl)phenoxy]ethanone] | 0.24 µM | –
O=C(COc1ccccc1C(F)(F)F)N1CCC2(CC1)C(C1CC1)=Cc1ccccc12 [Example 20, 1-[2-cyclopropylspiro(indene-1,4′-piperidine)-1′-yl]-2-[2-(trifluoromethyl)phenoxy]ethanone] | 0.088 µM | –
O=C(COc1ccccc1C(F)(F)F)N1CCC2(C=Cc3ccccc32)CC1 [Example 1, 1-[spiro(indene-1,4′-piperidine)-1′-yl]-2-[2-(trifluoromethyl)phenoxy]ethanone] | 0.029 µM | > 30 µM
